“Also recorded” adds a separate entry of the source.
Assays:
tau = assay: Agonist-induced tau phosphorylation (AT8) in SH-SY5Y cells, Western blot; format: cell-based, human
Experimental: (§1) Cells and Cell Culture—Human neuroblastoma (SH-SY5Y) cells were obtained from American Type Cell Culture (ATCC Number CRL-2266; Manassas, Va., USA). SH-SY5Y was cultured and maintained in F12:DMEM (1:1, v/v) media condition with 10% FBS and 1% penicillin/streptomycin in a 37° C./5% CO2 exchange condition. Passages 3-10 were used in the present study and confluent cells were subjected to stimulation with drugs for indicated times under serum-starved conditions.
(§2) Preparation of Phospholipid Vesicles—Phospholipid Vesicles in Phosphate-Buffered saline (PBS; 1 mg/mL) were prepared by sonication as previously described (8). Briefly, pure dilinoeoylphosphatidylcholine (DLPC) in chloroform was dried down under N2 and 1 mL of PBS was added by vortexing. The mix was then sonicated (Branson sonicator set at 100% duty cycle and 10% power) for 1 min. The sonicated preparation was incubated for 30 min at 37° C. in a water bath, and samples were resonicated for 5 min at 95% duty cycle and 10% power and filtered before use.
(§3) Western Blot Analysis—After incubation with drugs for the indicated times and doses, cells were washed twice with ice-cold PBS-T on ice. Cells were lysed by adding buffer [NaF 1 mmol/L, NaCl 5 mmol/L, EDTA 1 mmol/L, NP40 1 mmol/L (Roche Diagnostics, Indianapolis, Ind.), HEPES 10 mmol/L, pepstatin A 1 mg/mL, leupeptin 1 mg/mL, aprotinin 1 mg/mL, Na3VO4 1 mmol/L, and PMSF 1 mmol/L] and total protein was extracted. An equal amount of cell proteins were separated by 12% SDS-PAGE and were analyzed by Western blot using specific antibodies to TNFα, Aβ, APP, phospho-ERK1/2, ERK1/2, phospho-tau, tau, phospho-IκBα, IκBα, phospho-NF-κB and NF-κB. Blots for the similar experiments were also subjected to β-actin for a loading control. Band intensity was analyzed with the Alpha-Innotech Fluor Chem™ HD Imager.
The effect of pro-inflammatory and oxidative stress agonists on tau phosphorylation were also evaluated in SH-SY5Y cells.

[1] = system: amyloid precursor protein (APP); assay: Basal amyloid precursor protein expression in SH-SY5Y cells, Western blot; format: cell-based, human; settings: unstimulated SH-SY5Y; DLPC 12 μM, 24 h
Experimental: SH-SY5Y cells were incubated with DLPC (12 μM) for 24 h and APP expression was analyzed in total cell lysates by Western blotting. Histograms representing densitometry analysis of APP and the values are presented relative to total β-actin control and are expressed as mean±SEM of at least 3 independent experiments. *P<0.05 vs control.
as §1
Preparation of Phospholipid Vesicles—Phospholipid Vesicles in Phosphate-Buffered saline (PBS; 1 mg/mL) were prepared by sonication as previously described (8). […]
Western Blot Analysis—After incubation with drugs for the indicated times and doses, cells were washed twice with ice-cold PBS-T on ice. […] An equal amount of cell proteins were separated by 12% SDS-PAGE and were analyzed by Western blot using specific antibodies to TNFα, Aβ, APP, phospho-ERK1/2, ERK1/2, phospho-tau, tau, phospho-IκBα, IκBα, phospho-NF-κB and NF-κB. […] Band intensity was analyzed with the Alpha-Innotech Fluor Chem™ HD Imager.

IκBα [2] = assay: TNFα-induced IκBα phosphorylation and degradation in SH-SY5Y cells, Western blot; format: cell-based, human; settings: TNFα 10 ng/ml
Experimental: as §3, with “Blots for the similar experiments were also subjected to β-actin for a loading control.” left out

NF-κB [3] = assay: LPS- or TNFα-induced NF-κB phosphorylation in HepG2 cells, Western blot; format: cell-based, human; settings: for TNFα-induced activation of NF-κB (p-NF-κB): DLPC 12 μmol/L, DOPC 12 μmol/L or LA 25 μmol/L for 30 min, TNFα 10 ng/ml, 5 min
Experimental: HepG2 cells were pre-incubated with DLPC (12 μM) for 30 min. and then incubated with LPS (5 μg/ml) for 24 h in DMEM serum-depleted media. Phospho-IκBα and phospho-NF-kB (p-IκBα and p-NF-κB) expression were analyzed by Western blot.
as §3, with “Blots for the similar experiments were also subjected to β-actin for a loading control.” left out

IκBα [4] = assay: LPS-induced IκBα phosphorylation in HepG2 cells, Western blot; format: cell-based, human; settings: DLPC 12 μM 30 min, LPS 5 μg/ml, 24 h
Experimental: HepG2 cells were pre-incubated with DLPC (12 μM) for 30 min. and then incubated with LPS (5 μg/ml) for 24 h in DMEM serum-depleted media. Phospho-IκBα and phospho-NF-kB (p-IκBα and p-NF-κB) expression were analyzed by Western blot. Histograms represent densitometry analysis of p-IκBα (A) and p-NF-κB (B) and values are shown relative to β-actin and are expressed as mean±SEM of 3 replicate experiments. *P<0.05 vs LPS alone.
as §3

TNFα = assay: LPS-induced TNFα expression in HepG2 cells, Western blot; format: cell-based, human; settings: DLPC 12 μmol/L 30 min, LPS 5 μg/ml, 24 h
Experimental: HepG2 cells were pre-incubated with DLPC (12 μmol/L) for 30 min and then incubated with LPS (5 μg/ml) for 24 h in DMEM serum-depleted media. Cell lysates were analyzed for TNFα expression by Western blot. Values are presented relative to β-actin and are expressed as mean±SEM for 3 replicate experiments. *P<0.05 vs LPS alone.
as §3

amyloid-β = assay: Amyloid-β secretion into conditioned media of SH-SY5Y cells, Western blot; format: cell-based, human
Experimental: SH-SY5Y cells were pretreated with DLPC (12 μM) for 30 minutes and then incubated with LPS (100 ng/mL) for 24 h. Conditioned media from each experiment were collected and subjected to Western blot analysis for amyloid-β. Loading volumes were adjusted relative to total cell protein. Histograms representing densitometry analysis of amyloid-(3 and are expressed as mean±SEM of at least 3 independent experiments. *P<0.001 vs control and **P<0.001 vs LPS alone.
Cells and Cell Culture—Human neuroblastoma (SH-SY5Y) cells were obtained from American Type Cell Culture (ATCC Number CRL-2266; Manassas, Va., USA). SH-SY5Y was cultured and maintained in F12:DMEM (1:1, v/v) media condition with 10% FBS and 1% penicillin/streptomycin in a 37° C./5% CO2 exchange condition. Passages 3-10 were used in the present study and confluent cells were subjected to stimulation with drugs for indicated times under serum-starved conditions. […]
Aβ quantification—Aβ immuno-quantification was performed in conditioned media after incubation with the inhibitors/agonists and/or phospholipids for the indicated times and doses. […] Band intensities were analyzed using the Spot-densitometer application of the AlphaEaseFC software and values were corrected with total cell proteins in cell lysates. […] Total protein concentration was determined using the BCA protein assay (Pierce, Rockford, Ill.) in cell lysate. […]

TLR-4 = assay: LPS-induced TLR-4 expression in HepG2 cells, Western blot; format: cell-based, human; settings: DLPC 12 μmol/L 30 min, LPS 5 μg/ml, 24 h
Experimental: HepG2 cells were pre-incubated with DLPC (12 μmol/L) for 30 min. and then incubated with LPS (5 μg/ml) for 24 h in DMEM serum-depleted media. Cell lysates were analyzed for TLR-4 expression by Western blot. Values are presented relative to β-actin and are expressed as mean±SEM for 3 replicate experiments. *P<0.05 vs LPS alone.
as §3

NF-κB [5] = assay: TNFα-induced NF-κB phosphorylation in SH-SY5Y cells, Western blot; format: cell-based, human
Experimental: as §1, §2, §3
The effect of a selective MAPK inhibitor, U0126, on a TNFα induction of MAPK and nuclear factor kappa B (NF-κB) was evaluated. […] TNFα induced a 3-fold increase in NF-κB phosphorylation in SH-SY5Y cells at 5 min after treatment (FIG. 4). DLPC blocked the increase in neuronal NF-κB phosphorylation by ˜50% over 5-30 min post treatment with TNFα.

ERK1/2 = assay: TNFα- or H2O2-induced ERK1/2 (MAPK) phosphorylation in SH-SY5Y cells, Western blot; format: cell-based, human; settings: for TNFα-induced ERK1/2 phosphorylation: TNFα 10 ng/ml
Experimental: as §1, §2, §3
Experiments were undertaken to determine if DLPC can block a tumor necrosis factor (TNFα) activation of MAPK in neuroblastoma cells. […]

NF-κB [6] = assay: LPS and TNFα induction of NF-κB in CaCO-2 cells (unpublished observations); format: cell-based; settings: CaCO-2 cell line; unpublished observations of the inventors
Kupffer cells = Kupffer cells of ethanol-fed rats; cited from earlier work
[7] = DLPC 12 μM 30 min, TNFα 10 ng/ml
[8] = 10 μM pretreatment 30 min, TNFα 10 ng/ml
[9] = inhibitor 10 μM pretreatment 30 min

In the case of CCCCC/C=C\C/C=C\CCCCCCCC(=O)OC[C@H](COP(=O)([O-])OCC[N+](C)(C)C)OC(=O)CCCCCCC/C=C\C/C=C\CCCCC [DLPC, dilinoleoylphosphatidylcholine], the LPS-induced tau phosphorylation (tau; DLPC 12 μM 30 min, LPS 100 ng/ml) was “blocked the effect both agonists and gave rise to tau phosphoylation levels lower than control values by 30 min”, the TNFα-induced tau phosphorylation (tau; [7]) was “blocked the effect both agonists and gave rise to tau phosphoylation levels lower than control values by 30 min” and the “decrease of basal expression of amyloid precursor protein (APP)” value [1] was about 25%. The IκBα degradation (IκBα [2]; DLPC 12 μM 30 min) was “prevented IkBα degradation”, the “TNFα-induced IκBα phosphorylation” value (IκBα [2]; DLPC 12 μM 30 min) was “blocked TNFα-induced IkBα phosphorylation” and the “LPS-induced NF-κB phosphorylation / activation” value (NF-κB [3]; DLPC 12 μM 30 min, LPS 5 μg/ml, 24 h) was “inhibits LPS-induced IkBα and NF-κB phosphorylation after 24 h; also recorded: inhibits activation of NF-κB in HepG2 cells for up to 24 h”. The “TNFα-induced activation of NF-κB (p-NF-κB)” value (NF-κB [3]) was “block activation of NF-κB”, the “LPS-induced IκBα phosphorylation” value (IκBα [4]) was “inhibits LPS-induced IkBα and NF-κB phosphorylation after 24 h” and the “LPS-induced increase in TNFα expression” value (TNFα) was “inhibits an LPS-induced increase in TNFα expression”. For the same compound, the “LPS-induced increase in Aβ secretion” value (amyloid-β; DLPC 12 μM 30 min, LPS 100 ng/mL, 24 h) was “completely blocked”, the “decrease of basal secretion of Aβ” value (amyloid-β; DLPC 12 μM, 24 h conditioned media) was 65% and the “LPS-induced increase in TLR-4 expression” value (TLR-4) was “blocks an LPS-induced increase in TLR-4 expression”. For the same compound, the “TNFα-induced NF-κB phosphorylation” value (NF-κB [5]; [7]) was “inhibited TNFα-induced NF-κB phosphorylation”, the “block of the TNFα-induced increase in neuronal NF-κB phosphorylation” value (NF-κB [5]; DLPC 12 μM, 5-30 min post treatment with TNFα) was about 50% and the “hydrogen peroxide induction of MAPK” value (ERK1/2; DLPC) was “block a hydrogen peroxide induction of MAPK”. For the same compound, the “TNFα-induced ERK1/2 phosphorylation” value (ERK1/2; DLPC 12 μM pre-incubated 30 min) was “block ERK1/2 phosphorylation for 30 min”, the “LPS and TNFα induction of NF-κB” value (NF-κB [6]) was “can block an LPS and TNFα induction of NF-κB” and the NF-κB activation (Kupffer cells) was “decreases induction of TNFα secretion and NF-κB activation”. The “induction of TNFα secretion” value (Kupffer cells) was “decreases induction of TNFα secretion”.
With CCCCCCCC/C=C\CCCCCCCC(=O)OC[C@H](COP(=O)([O-])OCC[N+](C)(C)C)OC(=O)CCCCCCC/C=C\CCCCCCCC [DOPC, dioleoyl phosphatidylcholine, reference compound] the “TNFα-induced activation of NF-κB (p-NF-κB)” value (NF-κB [3]) was “no impact”.
In the case of N#CC(=C(/N)Sc1ccccc1N)/C(C#N)=C(\N)Sc1ccccc1N [U0126, reference compound], the “TNFα-induced phosphorylation of tau (AT8)” value (tau; U0126 10 μM pretreatment 30 min, TNFα 10 ng/ml, 5 min) was “completely blocked”, the “reduction of TNFα-induced IκBα phosphorylation” value (IκBα [2]; 10 μM pretreatment 30 min) was about 50% and the “reduction of TNFα-induced NF-κB phosphorylation” value (NF-κB [5]; [8]) was about 50%. The “TNFα-induced ERK1/2 phosphorylation” value (ERK1/2; [9]) was “blocked the phosphorylation of ERK1/2”.
In the case of CS/C(N)=C(C#N)/C(C#N)=C(\N)SC [U0124, reference compound], the NF-κB phosphorylation status (NF-κB [5]; [8]) was “no effect” and the “TNFα-induced ERK1/2 phosphorylation” value (ERK1/2; [9]) was “no effect”.

— US8912355B2, “Linoleic phospholipids and uses thereof for inhibiting inflammatory and neurodegenerative processes” (University of Ottawa Heart Institute, priority 2009, dated 2014)
